Data on eleven molecules can be found in ChEMBL document CHEMBL1201862, “PubChem BioAssay data set” (2004).

What all share (experiment): DTP human tumour cell line panel, 48 h
Assay [1] concerns U-251.
Assay [2] has as its system SW-620.
The subject of assay [3] is DU-145.
Assay [4] has as its system Hs-578T.
In assay [5] the test system is OVCAR-4.
The subject of assay [6] is IGROV-1.
The test system of assay [7] is MDA-MB-435.
Assay [8] relates to NCI-H23.
The test system of assay [9] is PC-3.
In assay [10] the test system is HCT-116.
For assay [11], the system named is MDA-N.
Assay [12] concerns HCT-15.
For assay [13], the system named is ACHN.
The test system of assay [14] is COLO 205.
The test system of assay [15] is MCF7.
In assay [16] the test system is KM12.
The subject of assay [17] is UO-31.
Assay [18] deals with NCI-H460.
Assay [19] has as its system SK-MEL-5.
For assay [20], the system named is NCI-H522.

Several values for one entry are separate records, joined by “and”; a condition that tells them apart may be missing. Identical values can stand only once.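 Tested at 5 concentrations; 48 h exposure; 96-well plates; endpoints linearly interpolated, else capped at highest concentration. GI50 is the concentration that inhibits growth by half.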 Activity calls are given as the source filed them. No stated cut-off is given here; in the data, active = GI50 up to about 1.1 µM and inactive = higher. A value given as a limit tells only on which side of the number the result lay.

For `Fc1cccc(Cl)c1C1SCc2nc3cc4ccccc4cc3n21` (stereo unspecified), the GI50 (as a rule, the concentration that inhibits growth by half) was > 100 µM (inactive) in assay [1]; > 100 µM (inactive) in assay [2]; > 100 µM (inactive) in [3]; 28.7 µM (inactive) in [4]; 28.9 µM (inactive) in [5]; 46.9 µM (inactive) in assay [6]. The GI50 in [7] was > 100 µM (inactive); in [8], > 100 µM (inactive); in assay [9] it was > 100 µM (inactive); in assay [10] it was 68.5 µM (inactive); in assay [11], > 100 µM (inactive); in assay [12], over 100 µM. Moreover, the GI50 in assay [13], in assay [14], in assay [15] and in [16] was > 100 µM (inactive) throughout.

For the molecule `CCCCCCCCCCCCOCC(COP(=O)(O)OCCN=[N+]=[N-])OC(=O)CCCCCCCCCCC` (stereo unspecified), the GI50 in assay [1] was > 100 µM (inactive); in [17], > 100 µM (inactive); in assay [18] it was > 100 µM (inactive); in assay [2] it was > 100 µM (inactive); in assay [3], > 100 µM (inactive); in assay [5], 52.2 µM (inactive). The GI50 in [7], in assay [19], in assay [8], in assay [20], in assay [9] and in assay [10] was > 100 µM (inactive) throughout. For the same molecule, the GI50 in assay [11] was > 100 µM (inactive); in [12] it was over 100 µM; in assay [13] it was > 100 µM (inactive); in [14] it was > 100 µM (inactive); in [15], > 100 µM (inactive); in assay [16] it was > 100 µM (inactive).

Turning to `N#CC(=C1CCN(CCCC(=O)c2ccc(F)cc2)CC1)c1ccccc1`, the GI50 in assay [1], in assay [17], in [18], in [2], in [3] and in [4] was > 100 µM (inactive) throughout. The GI50 in [5] was > 100 µM (inactive); in [6], > 100 µM (inactive); in assay [7], > 100 µM (inactive); in assay [19], > 100 µM (inactive); in assay [8] it was > 100 µM (inactive); in assay [20], 21.3 µM (inactive). The GI50 in [9] was > 100 µM (inactive); in assay [10], > 100 µM (inactive); in assay [12], over 100 µM; in assay [13], > 100 µM (inactive); in assay [14], > 100 µM (inactive); in assay [15], > 100 µM (inactive). In assay [16], the GI50 is > 100 µM (inactive).

In the case of `O=C(O)C12C3CCC(O3)C1(C(=O)O)C1CCC2O1` (stereo unspecified), the GI50 in [1] is > 100 µM (inactive); in assay [17], > 100 µM (inactive); in assay [18], > 100 µM (inactive); in [2], > 100 µM (inactive); in assay [3], > 100 µM (inactive); in assay [4], > 100 µM (inactive) and 98.2 µM (inactive). Further, the GI50 in assay [6], in assay [7], in assay [19], in [8], in assay [20] and in [9] was > 100 µM (inactive) each time. For the same molecule, the GI50 in assay [10] is > 100 µM (inactive); in [12], over 100 µM; in assay [13], > 100 µM (inactive); in [14] it was > 100 µM (inactive); in assay [15], > 100 µM (inactive); in assay [16], > 100 µM (inactive).

Consider `O=C(N/N=C1\CCc2ccccc2C1)N/N=C1\CCc2ccccc2C1`, for which the GI50 in assay [1], in assay [17], in [18], in [2], in assay [3] and in assay [5] was > 10 µM (inactive) each time. The GI50 in [7], in assay [8], in assay [20], in [9], in assay [10] and in assay [11] was > 10 µM (inactive) throughout. In addition, the GI50 in assay [12] was over 10 µM; in [13] it was > 10 µM (inactive); in assay [14], > 10 µM (inactive); in [15], > 10 µM (inactive); in assay [16] it was > 10 µM (inactive).

For `O=C(c1ccccc1)N1C(=O)N(c2ccccc2)C(=N/c2ccccc2)/C1=N\c1ccccc1`, the GI50 in assay [1] is > 100 µM (inactive); in [17], > 100 µM (inactive); in [18], 15 µM (inactive); in [2] it was > 100 µM (inactive); in [3] it was > 100 µM (inactive); in assay [4], 20.3 µM (inactive). The GI50 in assay [5] was 23.4 µM (inactive); in assay [6] it was > 100 µM (inactive); in [7], > 100 µM (inactive); in [19], > 100 µM (inactive); in [8], > 100 µM (inactive); in [20], 11 µM (inactive). The GI50 in [9] is > 100 µM (inactive); in assay [10], 47.9 µM (inactive); in assay [11] it was > 100 µM (inactive); in assay [12], 64 µM; in assay [13] it was 80.7 µM (inactive); in assay [14], 70.5 µM (inactive). Besides, in [16], the GI50 was 13.5 µM (inactive).

Take `COc1cc(C)c(/C=C2/N=C(c3ccccc3)OC2=O)c([N+](=O)[O-])c1OC`: the GI50 in assay [1], in assay [18], in assay [2], in [3], in assay [5] and in assay [6] was > 100 µM (inactive) each time. The GI50 in [7], in [8], in [20], in assay [9], in assay [10] and in assay [11] was > 100 µM (inactive) throughout. Besides, the GI50 in [12] is over 100 µM; in assay [13] it was > 100 µM (inactive); in assay [14], > 100 µM (inactive); in assay [15], > 100 µM (inactive); in [16], > 100 µM (inactive).

As for `C1=CC2=CC=CC3c4nc5ccc6ccccc6c5nc4C(=C1)C23` (stereo unspecified), the GI50 in assay [1], in [17], in [18], in [2], in assay [3] and in assay [4] was > 100 µM (inactive) throughout. Further, the GI50 in assay [5], in assay [6], in [7], in assay [19], in [8] and in [9] was > 100 µM (inactive) throughout. For the same molecule, the GI50 in [10] is > 100 µM (inactive); in assay [11] it was > 100 µM (inactive); in [12], over 100 µM; in assay [13] it was > 100 µM (inactive); in assay [14] it was > 100 µM (inactive); in assay [15] it was > 100 µM (inactive). The GI50 in assay [16] was > 100 µM (inactive).

Turning to `O=C(O)[C@@H]1CCS(=O)(=O)N1`, the GI50 in assay [18], in assay [2], in assay [3], in assay [5], in assay [6] and in [7] was > 100 µM (inactive) each time. In addition, the GI50 in [19], in [8], in [20], in assay [9], in assay [10] and in [11] was > 100 µM (inactive) throughout. Also, the GI50 in assay [12] is over 100 µM; in assay [13], > 100 µM (inactive); in [14], > 100 µM (inactive); in assay [15], > 100 µM (inactive); in assay [16], > 100 µM (inactive).

For `CC(=O)OC[C@H]1CN(OC(C)=O)C[C@@H](n2cc(C)c(=O)[nH]c2=O)O1`, the GI50 in [1], in assay [17], in assay [18], in [2], in assay [3] and in [4] was > 100 µM (inactive) each time. For the same molecule, the GI50 in [5], in [6], in assay [7], in [19], in assay [9] and in [10] was > 100 µM (inactive) throughout. For the same molecule, the GI50 in assay [11] is > 100 µM (inactive); in [12] it was over 100 µM; in assay [13] it was > 100 µM (inactive); in [14] it was > 100 µM (inactive); in [15] it was > 100 µM (inactive); in assay [16], > 100 µM (inactive).

For `[O-][S+]1CC[S+]([O-])CC[S+]([O-])CC1` (stereo unspecified), the GI50 in [1], in [17], in assay [18], in [2], in [3] and in assay [5] was > 100 µM (inactive) in each case. Besides, the GI50 in assay [6], in [7], in [19], in [8], in assay [20] and in [9] was > 100 µM (inactive) throughout. Moreover, the GI50 is > 100 µM (inactive) in assay [10]; > 100 µM (inactive) in assay [11]; over 100 µM in [12]; > 100 µM (inactive) in [14]; > 100 µM (inactive) in assay [15]; > 100 µM (inactive) in [16].
